Assay [1] addresses hPIV-3 C243 HN (haemagglutination function) (UniProt P08492, species not given/STRAIN_C243). The assay is described as follows: Haemagglutination inhibition assay, hPIV-3 C243. The assay is classed as biochemical, hPIV-3 (strain C-243). The following applies: 1% human red blood cells.
A further assay relates to hPIV-3 C243. The assay is described as follows: In situ ELISA virus growth inhibition, hPIV-3 C243. The format is cell-based, hPIV-3 (strain C243) in LLC-MK2 cells (Rhesus monkey kidney). Particulars: read-out: Viral Growth IC50.
Assay [2] has as its target hPIV-1 C35 HN (haemagglutination function) (Human parainfluenza 1 virus, UniProt P16071). In words: Haemagglutination inhibition assay, hPIV-1 C35. The format is biochemical, hPIV-1 (strain C-35).
The target in assay [3] is hPIV-3 CI002 HN (haemagglutination function) (UniProt P08492, species not given/STRAIN_CI002). The assay is described as follows: Haemagglutination inhibition assay, hPIV-3 CI002. The format is biochemical, hPIV-3 (strain CI002, clinical isolate). The following applies: 1% human red blood cells.
Sequence of hPIV-3 CI002 HN (haemagglutination function) (P08492 whole entry, change not shown): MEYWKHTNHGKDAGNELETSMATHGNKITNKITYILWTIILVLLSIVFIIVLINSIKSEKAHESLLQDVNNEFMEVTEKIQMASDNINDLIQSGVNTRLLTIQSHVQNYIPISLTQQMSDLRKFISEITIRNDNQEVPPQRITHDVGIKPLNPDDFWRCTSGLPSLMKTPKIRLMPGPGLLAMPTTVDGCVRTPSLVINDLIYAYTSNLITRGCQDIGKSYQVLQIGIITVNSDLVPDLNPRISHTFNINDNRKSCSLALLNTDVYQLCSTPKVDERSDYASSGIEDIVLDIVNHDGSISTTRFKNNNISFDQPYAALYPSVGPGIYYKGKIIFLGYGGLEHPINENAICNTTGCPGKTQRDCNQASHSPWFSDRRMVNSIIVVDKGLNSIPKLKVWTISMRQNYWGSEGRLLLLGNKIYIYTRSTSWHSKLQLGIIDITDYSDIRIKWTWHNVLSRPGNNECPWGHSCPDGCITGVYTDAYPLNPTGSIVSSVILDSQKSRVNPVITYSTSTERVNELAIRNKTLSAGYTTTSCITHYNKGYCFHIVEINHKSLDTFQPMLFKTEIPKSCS
The target of assay [4] is hPIV-3 C243 HN (neuraminidase function) (UniProt P08492, species not given/STRAIN_C243). In words: Neuraminidase inhibition assay (MUN), hPIV-3 C243. The format is biochemical, hPIV-3 (strain C-243). Particulars: pH 4.6.
Sequence of hPIV-3 C243 HN (neuraminidase function) (P08492 whole entry, change not shown): as above
The next assay has as its system hPIV-3 CI002. In words: In situ ELISA virus growth inhibition, hPIV-3 CI002. The format is cell-based. Particulars: Human respirovirus 3, in Macaca mulatta, LLC-MK2 cells, 36-40 h, read-out: Viral Growth IC50 (converted). Background: In an ELISA, binding on a coated surface is turned into a signal by an enzyme label.
Assay [5] concerns the target hPIV-1 C35 HN (neuraminidase function) (Human parainfluenza 1 virus, UniProt P16071). In words: Neuraminidase inhibition assay (MUN), hPIV-1 C35. The assay is classed as biochemical, hPIV-1 (strain C-35).
In assay [6] the target is hPIV-3 CI002 HN (neuraminidase function) (UniProt P08492, species not given/STRAIN_CI002). In words: Neuraminidase inhibition assay (MUN), hPIV-3 CI002. The assay is classed as biochemical, hPIV-3 (strain CI002, clinical isolate). Particulars: pH 4.6.
Sequence of hPIV-3 CI002 HN (neuraminidase function) (P08492 whole entry, change not shown): as above
The mark [7] stands for this setting: Human respirovirus 3, LLC-MK2, in Macaca mulatta.
[8] abbreviates: Human respirovirus 3, in Macaca mulatta, hPIV-3 C243, LLC-MK2 cells, in situ ELISA, 36-40 h.

Read-outs that look alike come from different tables or passages of the source.

Sequence of hPIV-1 C35 HN (haemagglutination function) (P16071 whole entry): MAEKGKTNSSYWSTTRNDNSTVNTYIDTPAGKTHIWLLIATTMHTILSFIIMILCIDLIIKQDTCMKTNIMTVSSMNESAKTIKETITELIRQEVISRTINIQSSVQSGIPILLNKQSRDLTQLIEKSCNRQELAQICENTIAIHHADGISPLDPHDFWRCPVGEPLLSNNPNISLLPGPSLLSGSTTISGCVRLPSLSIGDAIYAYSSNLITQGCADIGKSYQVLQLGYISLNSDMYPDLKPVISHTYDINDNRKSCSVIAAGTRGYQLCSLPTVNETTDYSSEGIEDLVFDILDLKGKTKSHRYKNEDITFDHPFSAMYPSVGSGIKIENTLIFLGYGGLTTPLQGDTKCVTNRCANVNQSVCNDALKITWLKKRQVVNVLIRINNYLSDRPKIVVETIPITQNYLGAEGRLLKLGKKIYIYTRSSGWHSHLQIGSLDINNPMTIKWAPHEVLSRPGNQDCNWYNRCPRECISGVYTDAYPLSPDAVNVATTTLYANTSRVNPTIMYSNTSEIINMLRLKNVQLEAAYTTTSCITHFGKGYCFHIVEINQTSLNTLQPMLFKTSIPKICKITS
Sequence of hPIV-1 C35 HN (neuraminidase function) (P16071 whole entry): as above
Sequence of hPIV-3 C243 HN (haemagglutination function) (P08492 whole entry, change not shown): as the sequence (P08492 whole entry, change not shown) above

In the case of `O=C(O)C1=C[C@H](n2cc3ccc4cccnc4c3n2)[C@@H](NC(=O)C(F)(F)F)[C@H]([C@H](O)[C@H](O)CO)O1` [RP1967-89, 2,6-Anhydro-3,4,5-trideoxy-5-(2,2,2-trifluoroacetamida)-4-(2H-pyrazolo[4,3-h]quinolin-2-yl)-D-glycero-D-galacto-non-2-enonic Acid], the IC50 (usually the concentration that inhibits the measured activity by half) in assay [1] is 3 µM; in the assay on hPIV-3 C243 (setting [7]) it was 9.67 µM; in assay [2], over 200 µM; in assay [3] it was 4.94 µM; in assay [4], 5.52 ± 0.983 µM; in the assay with hPIV-3 CI002, 5 µM. Also, the IC50 was 88.9 µM in assay [5] and 19.9 µM in assay [6].
Turning to `CC(C)C(=O)N[C@H]1[C@H]([C@H](O)[C@H](O)CO)OC(C(=O)O)=C[C@@H]1n1nnc2ccc3[nH]ccc3c21` (single isomer, unassigned) [IE1963-113a], the IC50 is 36.7 µM in assay [1]; 111 ± 9.29 µM in the assay on hPIV-3 C243 (setting [8]); 17 ± 0.764 µM in assay [4]; 42.6 µM with hPIV-3 CI002; 6.33 µM in assay [5]; 34.9 µM in assay [6].
On to `O=C(O)C1=C[C@H](n2cc3ccncc3n2)[C@@H](NC(=O)C(F)(F)F)[C@H]([C@H](O)[C@H](O)CO)O1` [JC2001-48, 2,6-Anhydro-3,4,5-trideoxy-5-(2,2,2-trifluoroacetamido)-4-(2H-pyrazolo[3,4-c]pyridin-2-yl)-D-glycero-D-galacto-non-2-enonic Acid], for which the IC50 is 13.1 µM in assay [1]; 54.5 ± 16.1 µM with hPIV-3 C243 (setting [7]); 0.27 µM in assay [2]; 4.94 µM in assay [3]; 21.5 µM in assay [4]; 8.48 µM in the assay with hPIV-3 CI002. The figures for the IC50 in assay [5] and in assay [6] were 1.71 µM and 29.2 µM, respectively.
As for `CC(C)C(=O)N[C@H]1[C@H]([C@H](O)[C@H](O)CO)OC(C(=O)O)=C[C@@H]1n1cc2cc(F)sc2c1C#N` [RE1993-40], the IC50 is 0.735 ± 0.259 µM in assay [1]; 3.22 ± 0.726 µM in the assay on hPIV-3 C243 (setting [8]); 22.2 µM in assay [2]; 0.82 µM in assay [3]; 1.14 ± 0.021 µM in assay [4]; 3.96 µM in the assay on hPIV-3 CI002. For the same compound, the IC50 in assay [5] is 5.41 µM; in assay [6] it was 2.71 µM.
For the compound `O=C(O)C1=C[C@H](n2cc3ncccc3n2)[C@@H](NC(=O)C(F)(F)F)[C@H]([C@H](O)[C@H](O)CO)O1` [JC2001-49, 2,6-Anhydro-3,4,5-trideoxy-5-(2,2,2-trifluoroacetamido)-4-(2H-pyrazolo[4,3-b]pyridin-2-yl)-D-glycero-D-galacto-non-2-enonic Acid], the IC50 in assay [1] was 13.1 µM; in the assay on hPIV-3 C243 (setting [7]), 26.9 µM; in assay [2], 14.8 µM; in assay [3], 4.94 µM; in assay [4], 8.33 ± 1.24 µM; in the assay on hPIV-3 CI002, 11.5 µM. Moreover, the IC50 in assay [5] was 23.2 µM; in assay [6], 15.1 µM.
In the case of `CC(C)C(=O)N[C@H]1[C@H]([C@H](O)[C@H](O)CO)OC(C(=O)O)=C[C@@H]1n1nnc2c3cc[nH]c3ccc21` (single isomer, unassigned) [IE1963-113b], the IC50 in assay [1] was 3 µM; with hPIV-3 C243 (setting [8]) it was 24.4 ± 3.35 µM; in assay [4], 5.14 ± 0.777 µM; with hPIV-3 CI002 it was 8.7 µM; in assay [5], 8.4 µM; in assay [6] it was 17.1 µM.

For the origin of these results see US12590092B2, “Antiviral agents and uses thereof” (GRIFFITH UNIVERSITY, priority 2021, dated 2026).
